What was measured:
[1] = tested on: Homo sapiens; assay: Increase in hemoglobin levels in stage 5D chronic kidney disease patient at 200 to 700 mg administered for 28 days measured on day 29 relative to control; type: functional
[2] = tested on: Homo sapiens; assay: Increase in hemoglobin levels in stage 3, 4, 5 chronic kidney disease patient at 200 to 700 mg administered for 28 days measured on day 29 relative to control; type: functional
[3] = tested on: Homo sapiens; assay: Increase in endogenous erythropoietin levels in human administered as single oral dose relative to control; type: functional
[4] = tested on: Homo sapiens; assay: Increase in hemoglobin levels in renal anemia patient at 40 to 120 mg administered for 4 weeks; type: functional
[5] = molecular target: Egl nine homolog 1 (Homo sapiens, UniProt Q9GZT9); assay: biochemical
Egl nine homolog 1, sequence (Q9GZT9 whole entry): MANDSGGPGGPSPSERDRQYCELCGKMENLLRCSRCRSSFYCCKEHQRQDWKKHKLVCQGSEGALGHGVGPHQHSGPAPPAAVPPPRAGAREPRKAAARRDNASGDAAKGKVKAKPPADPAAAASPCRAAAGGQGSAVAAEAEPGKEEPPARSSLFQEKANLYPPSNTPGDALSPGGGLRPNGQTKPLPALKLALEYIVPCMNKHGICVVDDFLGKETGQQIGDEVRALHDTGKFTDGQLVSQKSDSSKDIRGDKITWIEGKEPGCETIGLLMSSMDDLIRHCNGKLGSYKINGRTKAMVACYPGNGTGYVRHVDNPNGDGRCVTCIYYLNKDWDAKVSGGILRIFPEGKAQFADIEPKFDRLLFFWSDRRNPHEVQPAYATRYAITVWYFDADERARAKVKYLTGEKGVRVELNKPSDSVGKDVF

[6] = molecular target: Prolyl hydroxylase EGLN3 (Homo sapiens, UniProt Q9H6Z9); assay: Inhibition of recombinant human HIF-PHD3 expressed in insect Sf9 cells using biotinyl-DLDLEMLAPYIPMDDDFQL as substrate after 60 mins by DELFIA
Prolyl hydroxylase EGLN3, sequence (Q9H6Z9 whole entry): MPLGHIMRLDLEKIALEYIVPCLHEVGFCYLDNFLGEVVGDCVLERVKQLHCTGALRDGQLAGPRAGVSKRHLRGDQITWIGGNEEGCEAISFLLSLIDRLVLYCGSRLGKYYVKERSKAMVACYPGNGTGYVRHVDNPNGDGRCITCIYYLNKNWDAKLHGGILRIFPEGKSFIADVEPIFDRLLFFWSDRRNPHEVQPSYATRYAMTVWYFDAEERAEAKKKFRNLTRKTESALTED

[7] = molecular target: Prolyl hydroxylase EGLN2 (Homo sapiens, UniProt Q96KS0); assay: Inhibition of recombinant human HIF-PHD1 expressed in insect Sf9 cells using biotinyl-DLDLEMLAPYIPMDDDFQL as substrate after 60 mins by DELFIA
Prolyl hydroxylase EGLN2, sequence (Q96KS0 whole entry): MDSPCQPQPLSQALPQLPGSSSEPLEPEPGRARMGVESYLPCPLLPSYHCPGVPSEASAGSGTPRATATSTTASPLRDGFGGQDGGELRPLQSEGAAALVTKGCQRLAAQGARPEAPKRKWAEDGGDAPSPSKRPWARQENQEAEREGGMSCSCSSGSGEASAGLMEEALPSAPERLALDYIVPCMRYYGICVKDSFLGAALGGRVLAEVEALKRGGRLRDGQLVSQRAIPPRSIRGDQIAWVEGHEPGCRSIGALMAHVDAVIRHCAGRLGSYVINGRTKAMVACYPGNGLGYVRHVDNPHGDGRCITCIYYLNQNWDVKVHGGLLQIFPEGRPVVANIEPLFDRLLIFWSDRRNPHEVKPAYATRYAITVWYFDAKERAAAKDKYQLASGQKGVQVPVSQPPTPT

[8] = tested on: Homo sapiens; assay: Effect on hemoglobin levels in stage 3 and 4 chronic kidney disease patient at 200 to 700 mg administered for 28 days measured on day 29 (reference value: 9.91 g/dl); type: functional

Q: Which Activity [1] does the source give for `O=C(O)CNC(=O)C1C(=O)N(C2CCCCC2)C(=O)N(C2CCCCC2)C1=O` [DAPRODUSTAT] here?
A: 71 - 89%

Q: And the Activity [2]?
A: 63 - 91%

Q: `Cc1nc(C(=O)NCC(=O)O)c(O)c2ccc(Oc3ccccc3)cc12` [ROXADUSTAT] was tested. Which “fold change (FC)” value [3] did it give?
A: <=8

Q: What about the Activity [4] of the same compound?
A: >=1 g/dl

Q: Which IC50 [5] does the source give for `Oc1c(-n2ccnn2)cnn1-c1cc(N2CCOCC2)ncn1` [MOLIDUSTAT SODIUM] here?
A: 280 nM

Q: What about the IC50 [6] of the same compound?
A: 450 nM

Q: And the IC50 [7]?
A: 480 nM

Q: Which Activity [8] does the source give for `O=C(O)CNC(=O)c1ncc(-c2cccc(Cl)c2)cc1O` here?
A: 10.54 g/dL
